# Experimental data published in US9624228B2, “Inhibitors of ERK and methods of use” (KURA ONCOLOGY, INC., priority 2013, dated 2017).
# Biological target: ERK2 enzyme (Homo sapiens (Human), UniProt P28482)
# Test: Inhibition assay of ERK (Z'-LYTE kinase assay, Ser/Thr 3 peptide substrate)
# Format: biochemical
# Settings: 100 μM ATP
# Description: The inhibition of ERK activity by the compounds disclosed herein was determined using the Z′-LYTE kinase assay kit (Life Technologies) with a Ser/Thr 3 peptide substrate (Life Technologies) according to manufacturers' instructions. […] The IC50 values for the compounds were determined with 3-fold serial dilutions in duplicate. […] The final DMSO concentration in the assay was 1%. Final reaction volume was 20 μL/well in 384-well plates. Kinase reactions were conducted or 1 hour followed by the assay development reaction (1 hour) in a 20 ul/well in a 384 well plate format.
# [1] = In vitro, ERK2 enzyme 0.47 ng/μL
# ERK2 enzyme, sequence (P28482 whole entry): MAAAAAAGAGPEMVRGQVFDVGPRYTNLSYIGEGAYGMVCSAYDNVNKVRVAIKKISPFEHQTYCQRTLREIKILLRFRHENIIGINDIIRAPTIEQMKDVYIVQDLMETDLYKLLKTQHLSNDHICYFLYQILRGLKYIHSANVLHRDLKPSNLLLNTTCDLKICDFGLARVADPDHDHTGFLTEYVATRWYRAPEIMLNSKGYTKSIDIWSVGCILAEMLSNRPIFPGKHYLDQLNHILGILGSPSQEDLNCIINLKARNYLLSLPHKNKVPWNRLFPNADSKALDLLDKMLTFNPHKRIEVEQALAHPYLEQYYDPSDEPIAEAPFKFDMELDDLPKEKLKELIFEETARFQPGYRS
SMILES,IC50 [1],IC50 (In vitro ERK2 enzyme)
Cc1cc(-c2n[nH]c3cc4[nH]c(=O)c(C(C)Cc5ccc(F)cc5)cc4cc23)ccn1 (centres unmarked) [Compound 73],–,> 1000 nM
Cn1cc(-c2n[nH]c3cc4c(cc23)CN(Cc2ccc(F)c(Cl)c2)C(=O)N4)cn1 [Compound 31],–,< 50 nM
Cc1cc(-c2n[nH]c3cc4c(cc23)CN(C(C)CC(C)C)C(=O)N4)ccn1 (centres unmarked) [Compound 53],–,< 50 nM
Cc1cc(-c2n[nH]c3cc4c(cc23)CN([C@H](C)c2ccc(F)cc2)C(=O)N4)ccn1 [Compound 5],–,50 to 250 nM
O=C1Nc2cc3[nH]nc(-c4cn[nH]c4)c3cc2CN1Cc1cccc(Cl)c1 [Compound 60],–,< 50 nM
Cc1cc(-c2n[nH]c3cc4c(cc23)CN([C@@H]2CCCN(Cc3ncccc3C)C2)C(=O)N4)ccn1 [Compound 168],–,< 50 nM
Cc1cc(-c2n[nH]c3cc4c(cc23)CN([C@@H]2CCCN(CC3CCC3)C2)C(=O)N4)ccn1 [Compound 137],–,50 to 250 nM
Cc1cc(-c2n[nH]c3cc4c(cc23)CN([C@@H]2CCCN(CCc3ccc(F)cc3)C2)C(=O)N4)ccn1 [Compound 167],–,50 to 250 nM
Cc1cccc(-c2n[nH]c3cc4c(cc23)CN(Cc2cccc(Cl)c2)C(=O)N4)n1 [Compound 108],–,50 to 250 nM
COc1ncc(-c2n[nH]c3cc4c(cc23)CN([C@H](CO)c2cccc(Cl)c2)C(=O)N4)cn1 [Compound 118],–,< 50 nM
O=C1Nc2cc3[nH]nc(-c4ccncc4)c3cc2CN1Cc1cccc(Cl)c1 [Compound 3],–,< 50 nM
COc1ncc(-c2n[nH]c3cc4c(cc23)CN(Cc2cccc(Cl)c2)C(=O)N4)cn1 [Compound 68],–,< 50 nM
COc1ncc(-c2n[nH]c3cc4c(cc23)CN(Cc2ccc(F)cc2)C(=O)N4)cn1 [Compound 72],–,< 50 nM
Cc1cc(-c2n[nH]c3cc4c(cc23)CN([C@@H]2CCCN(Cc3ccc(F)cn3)C2)C(=O)N4)ccn1 [Compound 132],–,< 50 nM
COc1ncc(-c2n[nH]c3cc4c(cc23)CN(CCc2cccc(Cl)c2)C(=O)N4)cn1 [Compound 86],–,< 50 nM
Cc1cc(-c2n[nH]c3cc4c(cc23)CN(C2(c3ccc(F)cc3)CC2)C(=O)N4)ccn1 [Compound 17],–,50 to 250 nM
Cc1cc(-c2n[nH]c3cc4c(cc23)CN([C@H](C)CO)C(=O)N4)ccn1 [Compound 54],–,< 50 nM
Cc1cc(-c2n[nH]c3cc4c(cc23)CN([C@@H](C)c2cccc(Cl)c2)C(=O)N4)ccn1 [Compound 28],–,50 to 250 nM
COc1ncc(-c2n[nH]c3cc4c(cc23)CN([C@H](C)c2cccc(Cl)c2)C(=O)N4)cn1 [Compound 71],–,< 50 nM
Cc1cc(-c2n[nH]c3cc4c(cc23)CN(CCO)C(=O)N4)ccn1 [Compound 43],–,< 50 nM
COc1ncc(-c2n[nH]c3cc4c(cc23)CN([C@@H]2CCCN(Cc3ccccc3)C2)C(=O)N4)cn1 [Compound 104],–,< 50 nM

SMILES,IC50 [1],IC50 (In vitro ERK2 enzyme)
O=C1Nc2cc3[nH]nc(-c4ccccn4)c3cc2CN1Cc1cccc(Cl)c1 [Compound 91],–,50 to 250 nM
Cc1cc(-c2n[nH]c3cc4c(cc23)CN([C@@H]2CCCN(c3cccc(Cl)c3)C2)C(=O)N4)ccn1 [Compound 174],–,< 50 nM
COc1ncc(-c2n[nH]c3cc4c(cc23)CN([C@H](C)c2cccc(C#N)c2)C(=O)N4)cn1 [Compound 100],–,< 50 nM
COc1cccc(F)c1CN1CC[C@@H](N2Cc3cc4c(-c5ccnc(C)c5)n[nH]c4cc3NC2=O)C1 [Compound 162],–,< 50 nM
COCCOCCN1Cc2cc3c(-c4ccnc(C)c4)n[nH]c3cc2NC1=O [Compound 45],–,< 50 nM
COc1cccc(F)c1CN1CCC[C@@H](N2Cc3cc4c(-c5ccnnc5)n[nH]c4cc3NC2=O)C1 [Compound 126],–,< 50 nM
Cc1cc(-c2n[nH]c3cc4c(cc23)CN([C@@H]2CCCNC2)C(=O)N4)ccn1 [Compound 32],–,50 to 250 nM
COc1ncc(-c2n[nH]c3cc4c(cc23)CN(C)C(=O)N4)cn1 [Compound 96],–,50 to 250 nM
Cc1cc(-c2n[nH]c3cc4c(cc23)CN([C@@H]2CCCN(Cc3ccccc3)C2)C(=O)N4)ccn1 [Compound 63],–,< 50 nM
Cc1cc(-c2n[nH]c3cc4c(cc23)CN(CCNCc2ccc(F)c(Cl)c2)C(=O)N4)ccn1 [Compound 173],–,< 50 nM
COc1ncc(-c2n[nH]c3cc4c(cc23)CN(CCc2cccc(Cl)c2)CC(=O)N4)cn1 [Compound 107],–,250 to 1000 nM
COc1ccc(-c2n[nH]c3cc4c(cc23)CN(Cc2ccc(F)c(Cl)c2)C(=O)N4)cn1 [Compound 36],–,< 50 nM
Cc1cc(-c2n[nH]c3cc4c(cc23)CN([C@H](C)c2ccc(C#N)cc2)C(=O)N4)ccn1 [Compound 23],–,< 50 nM
Cc1cc(-c2n[nH]c3cc4[nH]c(=O)n(Cc5ccccc5)c(=O)c4cc23)ccn1 [Compound 27],–,< 50 nM
O=C1Nc2cc3[nH]nc(-c4ccc(=O)[nH]c4)c3cc2CN1Cc1cccc(Cl)c1 [Compound 61],–,< 50 nM
COc1ncc(-c2n[nH]c3cc4c(cc23)CN([C@H](C)c2ccc(Cl)cc2)C(=O)N4)cn1 [Compound 95],–,< 50 nM
Cc1cc(-c2n[nH]c3cc4c(cc23)CN(CCN)C(=O)N4)ccn1 [Compound 83],–,< 50 nM
COc1ncc(-c2n[nH]c3cc4c(cc23)CN(Cc2cccc(Cl)c2)CC(=O)N4)cn1 [Compound 98],–,> 1000 nM
Cc1cc(-c2n[nH]c3cc4[nH]c(=O)n(Cc5ccccc5)c4cc23)ccn1 [Compound 19],–,< 50 nM
O=C1Nc2cc3[nH]nc(-c4cncnc4)c3cc2CN1Cc1cccc(Cl)c1 [Compound 123],–,< 50 nM

# The next lines start with the values.
IC50 [1],IC50 (In vitro ERK2 enzyme),SMILES
50 to 250 nM,–,COc1cc(-c2n[nH]c3cc4c(cc23)CN([C@@H]2CN(CC(F)(F)F)C[C@H]2c2ccccc2)C(=O)N4)ccn1 [Compound 375]
< 50 nM,–,COc1ncc(-c2n[nH]c3cc4c(cc23)CN([C@@H]2CN(C)C[C@H]2c2ccccc2)C(=O)N4)cn1 (mixture of isomers) [Compound 355]
250 to 1000 nM,–,Cc1cc(-c2n[nH]c3cc4c(cc23)CN(C2CN(CC3CCCC3)CC(F)(F)C2)C(=O)N4)ccn1 (centres unmarked) [Compound 201]
< 50 nM,–,Cc1cc(-c2n[nH]c3cc4[nH]c(=O)c(CC5CCCCC5)cc4cc23)ccn1 [Compound 266]
< 50 nM,–,Cc1cc(-c2n[nH]c3cc4c(cc23)CN(Cc2ccc(F)c(Cl)c2)C(=O)N4)cc(C)n1 [Compound 226]
< 50 nM,–,Cc1ncc(-c2n[nH]c3cc4c(cc23)CN([C@@H]2CCCN(Cc3ccccc3)C2)C(=O)N4)cn1 [Compound 292]
–,50 to 250 nM,Cc1cc(-c2n[nH]c3cc4c(cc23)CN([C@@H]2CCCN(Cc3cc(C(C)(C)C)no3)C2)C(=O)N4)ccn1 [Compound 186]
< 50 nM,–,CC(c1ccccc1)c1cc2cc3c(-c4cnc(N)nc4)n[nH]c3cc2[nH]c1=O (centres unmarked) [Compound 334]
< 50 nM,–,Nc1ncc(-c2n[nH]c3cc4c(cc23)CN([C@@H]2CN(CC(F)(F)F)C[C@H]2c2ccccc2)C(=O)N4)cn1 [Compound 351]
< 50 nM,–,COc1ccc(-c2n[nH]c3cc4c(cc23)CN([C@@H]2CCCN(Cc3ccccc3)C2)C(=O)N4)cn1 [Compound 272]
50 to 250 nM,–,Cc1cc(-c2n[nH]c3cc4c(cc23)CN([C@H]2CCCN(CC(F)(F)F)C2)C(=O)N4)ccn1 [Compound 309]
–,< 50 nM,Cc1cc(-c2n[nH]c3cc4c(cc23)CN([C@@H]2CCCN(Cc3cccc(F)c3)C2)C(=O)N4)ccn1 [Compound 184]
50 to 250 nM,–,Cc1cc(-c2n[nH]c3cc4c(cc23)CN([C@@H]2CCCN(CC(O)C(C)(C)C)C2)C(=O)N4)ccn1 (some centres unmarked) [Compound 236]
< 50 nM,–,CC(c1ccccc1)c1cc2cc3c(-c4ccnc(N5CCN(C)CC5)c4)n[nH]c3cc2[nH]c1=O (centres unmarked) [Compound 318]
< 50 nM,–,Cc1cc(-c2n[nH]c3cc4c(cc23)CN([C@@H]2CCN(CC(F)(F)F)C2)C(=O)N4)cc(C)n1 [Compound 237]
50 to 250 nM,–,Cc1cc(-c2n[nH]c3cc4c(cc23)CN(CCC2CC2)C(=O)N4)ccn1 [Compound 283]
< 50 nM,–,Cc1cc(-c2n[nH]c3cc4c(cc23)CN([C@@H]2CN(C)C[C@H]2c2ccccc2F)C(=O)N4)cc(C)n1 (racemic) [Compound 306]
50 to 250 nM,–,COc1ccc(-c2n[nH]c3cc4c(cc23)CN([C@H]2CCCN(Cc3ccccc3)C2)C(=O)N4)cn1 [Compound 368]
< 50 nM,–,Cc1cc(-c2n[nH]c3cc4[nH]c(=O)c(C5CCCC5)cc4cc23)ccn1 [Compound 289]
50 to 250 nM,–,Cn1nccc1-c1n[nH]c2cc3c(cc12)CN(Cc1cccc(Cl)c1)C(=O)N3 [Compound 235]
< 50 nM,–,Cc1cc(-c2n[nH]c3cc4[nH]c(=O)c(C5CCCN(Cc6ccccc6)C5)cc4cc23)ccn1 (centres unmarked) [Compound 332]
250 to 1000 nM,–,Cc1cc(-c2n[nH]c3cc4c(cc23)CN([C@@H]2CN(C)C[C@H]2C(C)C)C(=O)N4)ccn1 (mixture of isomers) [Compound 327]
< 50 nM,–,COc1ncc(-c2n[nH]c3cc4c(cc23)CN([C@@H]2CCCN(Cc3cccs3)C2)C(=O)N4)cn1 [Compound 295]
< 50 nM,–,Cc1cc(-c2n[nH]c3cc4c(cc23)CN(CC2CCOCC2)C(=O)N4)cc(C)n1 [Compound 250]
< 50 nM,–,Cc1cc(-c2n[nH]c3cc4c(cc23)CN([C@@H]2CCCN(Cc3csc(C)c3)C2)C(=O)N4)ccn1 [Compound 251]
50 to 250 nM,–,Cc1cc(-c2n[nH]c3cc4c(cc23)CN([C@@H]2CCN(C(C)C)C2)C(=O)N4)ccn1 [Compound 268]
< 50 nM,–,Cc1ncc(-c2n[nH]c3cc4c(cc23)CN([C@@H]2CCCN(Cc3ccc(F)cc3F)C2)C(=O)N4)cn1 [Compound 293]
< 50 nM,–,C[C@H](c1ccccc1)c1cc2cc3c(NC4CCOCC4)n[nH]c3cc2[nH]c1=O [Compound 357]
50 to 250 nM,–,CC(c1ccccc1)c1cc2cc3c(-c4ccc(N5CCOCC5)nc4)n[nH]c3cc2[nH]c1=O (centres unmarked) [Compound 324]
< 50 nM,–,Cc1cc(-c2n[nH]c3cc4c(cc23)CN([C@H]2CCN(CC(F)(F)F)C2)C(=O)N4)cc(C)n1 [Compound 310]
